Data taken from patent US20260317320A1, “C5AR1 ANTAGONISTS AND USES THEREOF” (Vanqua Bio, Inc., priority 2022, published 2026).
pIC50: −log10 of the molar value. Where two headings read alike, the source gives them in different places.

Legend:
[1] = target: T1, complement C5a receptor 1 (C5aR1) (Homo sapiens, UniProt P21730); experiment: β-arrestin recruitment via C5aR1 activation in live CHO-K1 cells (PathHunter), antagonist mode; format: cell-based
T1 construct: β-galactosidase fragment (PathHunter enzyme complementation); host or cells: CHO-K1 (PathHunter CHO-K1 C5aR1 β-arrestin cell line)
T1 sequence (P21730 1-350): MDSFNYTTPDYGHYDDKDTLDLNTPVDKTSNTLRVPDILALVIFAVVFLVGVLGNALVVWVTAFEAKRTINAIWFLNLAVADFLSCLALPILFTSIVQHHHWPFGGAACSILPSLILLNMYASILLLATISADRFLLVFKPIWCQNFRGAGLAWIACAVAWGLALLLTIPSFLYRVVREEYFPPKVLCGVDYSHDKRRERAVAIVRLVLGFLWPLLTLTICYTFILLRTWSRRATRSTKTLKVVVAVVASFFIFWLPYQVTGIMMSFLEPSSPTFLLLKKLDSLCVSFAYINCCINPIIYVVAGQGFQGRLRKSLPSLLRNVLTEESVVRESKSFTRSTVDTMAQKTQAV
How it was run: (§1)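 β-arrestin recruitment to C5aR1 in CHO-K1 cells is detected by enzyme-fragment complementation. Antagonism is measured against recombinant hC5a at its EC90; agonism is measured with compound alone. Potencies are grouped into IC50 categories.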

[2] = target: T1, complement C5a receptor 1 (C5aR1); experiment: β-arrestin recruitment via C5aR1 activation in live CHO-K1 cells (PathHunter), agonist mode; format: cell-based
How it was run: as §1

[3] = antagonist mode, recombinant hC5a (EC90) as competing natural agonist, live CHO-K1 cells, read-out: [Antagonist] B-arrestin2 recruitment: Average IC50

SMILES	pIC50 [1, 3]	[Agonist] B-arrestin2 recruitment: Average EC50 (nM) [2]	pIC50 [1]
Cc1cnc2cc(C3CCN(c4c(C)cccc4F)CC3)c(=O)n(Cc3nccnc3C(F)(F)F)c2n1 [compound 25, 7-(1-(2-Fluoro-6-methylphenyl)piperidin-4-yl)-3-methyl-5-((3-(trifluoromethyl)pyrazin-2-yl)methyl)pyrido[2,3-b]pyrazin-6(5H)-one]	> 6.30	Non-Active	–
Cc1cnc(F)cc1N1CCC(c2cc3nccnc3n(Cc3ccccc3C(F)(F)F)c2=O)CC1 [compound 26, 7-(1-(2-fluoro-5-methylpyridin-4-yl)piperidin-4-yl)-5-(2-(trifluoromethyl)benzyl)pyrido-[2,3-b]pyrazin-6(5H)-one]	5.30 to 6.30	Non-Active	–
Cc1c(N2CCC(c3cc4nccnc4n(Cc4ccccc4C(F)(F)F)c3=O)CC2)ccnc1F [compound 29, 7-(1-(2-Fluoro-3-methylpyridin-4-yl)piperidin-4-yl)-5-(2-(trifluoromethyl)benzyl)pyrido-[2,3-b]pyrazin-6(5H)-one]	4.00 to 5.30	Non-Active	–
Cc1ccnc(F)c1N1CCC(c2cc3nccnc3n(Cc3ccccc3C(F)(F)F)c2=O)CC1 [compound 31, 7-(1-(2-Fluoro-4-methylpyridin-3-yl)piperidin-4-yl)-5-(2-(trifluoromethyl)benzyl)pyrido[2,3-b]pyrazin-6(5H)-one]	> 6.30	Non-Active	–
Cc1cc(F)ncc1N1CCC(c2cc3nccnc3n(Cc3ccccc3C(F)(F)F)c2=O)CC1 [compound 32, 7-(1-(6-Fluoro-4-methylpyridin-3-yl)piperidin-4-yl)-5-(2-(trifluoromethyl)benzyl)pyrido-[2,3-b]pyrazin-6(5H)-one]	> 6.30	Non-Active	–
COc1ccnc(F)c1N1CCC(c2cc3nccnc3n(Cc3ccccc3C(F)(F)F)c2=O)CC1 [compound 33, 7-(1-(2-Fluoro-4-methoxypyridin-3-yl)piperidin-4-yl)-5-(2-(trifluoromethyl)benzyl)pyrido[2,3-b]pyrazin-6(5H)-one]	5.30 to 6.30	Non-Active	–
O=c1c(C2CCN(c3nccnc3F)CC2)cc2nccnc2n1Cc1ccccc1C(F)(F)F [compound 34, 7-(1-(3-Fluoropyrazin-2-yl)piperidin-4-yl)-5-(2-(trifluoromethyl)benzyl)pyrido[2,3-b]pyrazine-6(5H)-one]	< 4.00	Non-Active	–
Cc1cccc(F)c1N1CCC(n2c(=O)c3ccccc3n(Cc3ncccc3C(F)(F)F)c2=O)CC1 [compound 36, 3-(1-(2-Fluoro-6-methylphenyl)piperidin-4-yl)-1-((3-(trifluoromethyl)pyridin-2-yl)methyl)quinazoline-2,4(1H,3H)-dione]	5.30 to 6.30	Non-Active	–
Cc1cccc(F)c1N1CCC(n2c(=O)c3nccnc3n(Cc3nccnc3C(F)(F)F)c2=O)CC1 [compound 37, 3-(1-(2-Fluoro-6-methylphenyl)piperidin-4-yl)-1-((3-(trifluoromethyl)pyrazin-2-yl)methyl)pteridine-2,4(1H,3H)-dione]	4.00 to 5.30	Non-Active	–
Cc1cccc(F)c1N1CCC(c2nc3nccnc3n(Cc3ccccc3C(F)(F)F)c2=O)CC1 [compound 39, 3-(1-(2-Fluoro-6-methylphenyl)piperidin-4-yl)-1-(2-(trifluoromethyl)benzyl)pyrazino[2,3-b]pyrazin-2(1H)-one]	–	Non-Active	5.30 to 6.30
Cc1cnc2cc(C3CCN(c4c(C)cccc4F)CC3)c(=O)n(Cc3ncccc3C(F)(F)F)c2n1 [compound 41, 7-(1-(2-Fluoro-6-methylphenyl)piperidin-4-yl)-3-methyl-5-((3-(trifluoromethyl)pyridin-2-yl)methyl)pyrido[2,3-b]pyrazin-6(5H)-one]	> 6.30	Non-Active	–
Cc1cccc(F)c1N1CCC(n2c(=O)c3nccnc3n(Cc3ncccc3C(F)(F)F)c2=O)CC1 [compound 42, 3-(1-(2-Fluoro-6-methylphenyl)piperidin-4-yl)-1-((3-(trifluoromethyl)pyridin-2-yl)methyl)pteridine-2,4(1H,3H)-dione]	5.30 to 6.30	Non-Active	–
Cc1ncc(F)cc1N1CCC(c2cc3nccnc3n(Cc3ncccc3C(F)(F)F)c2=O)CC1 [compound 44, 7-(1-(5-Fluoro-2-methylpyridin-3-yl)piperidin-4-yl)-5-((3-(trifluoromethyl)pyridin-2-yl)methyl)pyrido[2,3-b]pyrazin-6(5H)-one]	< 4.00	Non-Active	–
Cc1cnc2c(=O)n(C3CCN(c4c(C)cccc4F)CC3)c(=O)n(Cc3ncccc3C(F)(F)F)c2n1 [compound 50, 3-(1-(2-Fluoro-6-methylphenyl)piperidin-4-yl)-7-methyl-1-((3-(trifluoromethyl)pyridin-2-yl)methyl)pteridine-2,4(1H,3H)-dione]	5.30 to 6.30	Non-Active	–
Cc1cnc2cc(C3CCN(c4cc(F)cnc4C)CC3)c(=O)n(Cc3nccnc3C(F)(F)F)c2n1 [compound 52, 7-(1-(5-Fluoro-2-methylpyridin-3-yl)piperidin-4-yl)-3-methyl-5-((3-(trifluoromethyl)pyrazin-2-yl)methyl)pyrido[2,3-b]pyrazin-6(5H)-one]	< 4.00	Non-Active	–

More lines, now with the values ahead:

pIC50 [1, 3]	[Agonist] B-arrestin2 recruitment: Average EC50 (nM) [2]	pIC50 [1]	SMILES
–	Non-Active	< 4.00	Cc1cccc(F)c1N1CCC(c2cc3nccnc3n(Cc3cnc(C(F)(F)F)cn3)c2=O)CC1 [compound 27, 7-(1-(2-Fluoro-6-methylphenyl)piperidin-4-yl)-5-((5-(trifluoromethyl)pyrazin-2-yl)methyl)pyrido[2,3-b]pyrazin-6(5H)-one]
4.00 to 5.30	Non-Active	–	Cc1cccc(F)c1N1CCC(c2cc3cncnc3n(Cc3nccnc3C(F)(F)F)c2=O)CC1 [compound 28, 6-(1-(2-fluoro-6-methylphenyl)piperidin-4-yl)-8-((3-(trifluoromethyl)pyrazin-2-yl)methyl)pyrido[2,3-d]pyrimidin-7(8H)-one]
–	Non-Active	4.00 to 5.30	Cc1cccc(F)c1N1CCC(c2cc3nccnc3n(Cc3cncc(C(F)(F)F)n3)c2=O)CC1 [compound 30, 7-(1-(2-Fluoro-6-methylphenyl)piperidin-4-yl)-5-((6-(trifluoromethyl)pyrazin-2-yl)methyl)pyrido[2,3-b]pyrazin-6(5H)-one]
> 6.30	Non-Active	–	Cc1cccc(F)c1N1CCC(c2cc3nccnc3n(Cc3ccccc3F)c2=O)CC1 [compound 35, 7-(1-(2-Fluoro-6-methylphenyl)piperidin-4-yl)-5-(2-fluorobenzyl)pyrido[2,3-b]pyrazin-6(5H)-one]
> 6.30	Non-Active	–	O=c1c(C2CCN(c3ccccc3C(F)(F)F)CC2)cc2nccnc2n1Cc1ncccc1C(F)(F)F [compound 38, 7-(1-(2-(Trifluoromethyl)phenyl)piperidin-4-yl)-5-((3-(trifluoromethyl)pyridin-2-yl)methyl)pyrido[2,3-b]pyrazin-6(5H)-one]
< 4.00	Non-Active	–	Cc1ncc(F)cc1N1CCC(c2cc3nccnc3n(Cc3nccnc3C(F)(F)F)c2=O)CC1 [compound 45, 7-(1-(5-Fluoro-2-methylpyridin-3-yl)piperidin-4-yl)-5-((3-(trifluoromethyl)pyrazin-2-yl)methyl)pyrido[2,3-b]pyrazin-6(5H)-one]
5.30 to 6.30	Non-Active	–	Cc1cccc(F)c1N1CCC(c2nc3nccnc3n(Cc3ccccc3OC(F)F)c2=O)CC1 [compound 46, 1-(2-(difluoromethoxy)benzyl)-3-(1-(2-fluoro-6-methylphenyl)piperidin-4-yl)pyrazino[2,3-b]pyrazin-2(1H)-one]
5.30 to 6.30	Non-Active	–	Cc1ncc2cc(C3CCN(c4c(C)cccc4F)CC3)c(=O)n(Cc3nccnc3C(F)(F)F)c2n1 [compound 47, 6-(1-(2-Fluoro-6-methylphenyl)piperidin-4-yl)-2-methyl-8-((3-(trifluoromethyl)pyrazin-2-yl)methyl)pyrido[2,3-d]pyrimidin-7(8H)-one]
5.30 to 6.30	Non-Active	–	Cc1cccc(F)c1N1CC(c2cc3nccnc3n(Cc3ncccc3C(F)(F)F)c2=O)C1 [compound 48, 7-(1-(2-Fluoro-6-methylphenyl)azetidin-3-yl)-5-((3-(trifluoromethyl)pyridin-2-yl)methyl)pyrido[2,3-b]pyrazin-6(5H)-one]
5.30 to 6.30	Non-Active	–	CCOc1ncc2cc(C3CCN(c4c(C)cccc4F)CC3)c(=O)n(Cc3nccnc3C(F)(F)F)c2n1 [compound 51, 2-Ethoxy-6-(1-(2-fluoro-6-methylphenyl)piperidin-4-yl)-8-((3-(trifluoromethyl)pyrazin-2-yl)methyl)pyrido[2,3-d]pyrimidin-7(8H)-one]
